Results on 36 compounds are retold here after US11396505B2, “Inhibitors of CaMKK2 and uses of same” (New York University, priority 2019, dated 2022).

Assay [1] concerns the target CaMKK2 (Homo sapiens, UniProt Q96RR4). The assay can be described thus: CaMKK1/2 biochemical assay, 32P radiometric kinase assay (CaMKK2). Particulars: for inhibition at 0.2 µM: 0.2 μM compound, read-out: CaMKK2 % inhibition @ concentrations shown, 0.2 μM; for inhibition at 10 µM: 10 μM compound, read-out: CaMKK2 % inhibition @ concentrations shown, 10 μM; for inhibition at 0.5 µM: 0.5 μM compound, read-out: CaMKK2 % inhibition @ concentrations shown, 0.5 μM. The protocol:
(§1) The following is an example of a CaMKK1/2-biochemical assay. Compounds were tested for CaMKK1/2 inhibition using a ^32P radiometric kinase assay as follows: A freshly prepared kinase reaction buffer (20 mM Hepes (pH 7.5), 10 mM MgCl2, 1 mM EGTA, 0.02% Brij35, 0.02 mg/ml BSA, 0.1 mM Na3VO4, 2 mM DTT, 1% DMSO) was treated with Myelin Basic Protein (final concentration=20 μM), CaCl2) (final concentration=1.5 mM), Calmodulin (final concentration=0.96 μM) and either CaMKK2 (final reaction concentration=120 nM) or CaMKK1 (final reaction concentration=150 nM) and gently mixed. Compounds were added as aliquots from 10 mM DMSO stock solutions such that the final compound concentration in the assay was either 10 μM, 0.5 μM or 0.2 μM. This mixture was allowed to incubate for 20 minutes at room temperature. ^32P-ATP (specific activity 10 μCi/μL) was added and the mixture was allowed to incubate for 2 hours at room temperature. The reaction mixture was spotted onto P81 ion exchange paper. The kinase activity was detected by the filter binding method.

The target of assay [2] is CaMKK1 (Homo sapiens, UniProt Q8N5S9). As to the kind of experiment: CaMKK1/2 biochemical assay, 32P radiometric kinase assay (CaMKK1). How it is done:
as §1

A value given as a limit tells only on which side of the number the result lay.

Consider `O=C1OCCN1c1ccc2[nH]nc(-c3cc4cccc(Cl)c4[nH]3)c2c1` [Example 14, 3-(3-(7-chloro-1H-indol-2-yl)-1H-indazol-5-yl)oxazolidin-2-one], for which the inhibition at 0.2 µM in assay [1] came to 71%. For the compound `O=C1OCCN1c1ccc2[nH]nc(-c3cc4ccccc4o3)c2c1` [Example 2, 3-(3-(Benzofuran-2-yl)-1H-indazol-5-yl)oxazolidin-2-one], the inhibition at 10 µM in assay [1] amounted to 98%. In addition, the midpoint of inhibition in assay [2], the IC50, lay at 164 nM. Take `COc1ccc2cc(-c3n[nH]c4ccc(N5CCOC5=O)cc34)[nH]c2c1` [Example 19, 3-(3-(6-methoxy-1H-indol-2-yl)-1H-indazol-5-yl)oxazolidin-2-one]: in assay [1], the inhibition at 0.2 µM is 87%. Same read-out and setting: to `COc1cccc2[nH]c(-c3n[nH]c4ccc(N5CCOC5=O)cc34)cc12` [Example 21, 3-(3-(4-methoxy-1H-indol-2-yl)-1H-indazol-5-yl)oxazolidin-2-one] belongs 84%. For the compound `O=C1OCCN1c1ccc2[nH]nc(-c3cccnc3)c2c1` [Example 7, 3-(3-(pyridin-3-yl)-1H-indazol-5-yl)oxazolidin-2-one], in assay [1], the “Biochemical Data CaMKK2, inh @ 0.5 μM” value was found to be 29% inh @ 0.5 μM and the inhibition at 0.5 µM came to 29%. The “Biochemical Data CaMKK1, inh @ 0.5 μM” value in assay [2] is under 5% inh @ 0.5 μM. As to `O=C1OCCN1c1ccc2[nH]nc(-c3cccc(Cl)c3)c2c1` [Example 23, 3-(3-(3-chlorophenyl)-1H-indazol-5-yl)oxazolidin-2-one], in assay [1], the “Biochemical Data CaMKK2, inh @ 0.2 μM” value is on record as 44% inh @ 0.2 μM and the inhibition at 0.2 µM is 44%. For the same compound, the “Biochemical Data CaMKK1, inh @ 0.2 μM” value in assay [2] was under 5% inh @ 0.2 μM. Consider `O=C1OCCN1c1ccc2[nH]nc(-n3ccnc3)c2c1` [Example 5, 3-(3-(1H-imidazol-1-yl)-1H-indazol-5-yl)oxazolidin-2-one], for which the inhibition at 10 µM in assay [1] was determined as 29%.

Turning to `CN(C)CCNC(=O)c1ccc(/C=C/c2n[nH]c3ccc(N4CCOC4=O)cc23)cc1` [Example 30, (E)-N-(2-(dimethylamino)ethyl)-4-(2-(5-(2-oxooxazolidin-3-yl)-1H-indazol-3-yl)vinyl)benzamide], the inhibition at 0.2 µM in assay [1] stood at 75%. As for `O=C1OCCN1c1ccc2[nH]nc(-c3ccc4cc[nH]c4c3)c2c1` [CL-669], the “Biochemical Data CaMKK2, inh @ 0.2 μM” value in assay [1] stood at 55% inh @ 0.2 μM. Moreover, the “Biochemical Data CaMKK1, inh @ 0.2 μM” value in assay [2] is on record as under 5% inh @ 0.2 μM. For the compound `COc1ccc2[nH]c(-c3n[nH]c4ccc(N5CCOC5=O)cc34)cc2c1` [Example 20, 3-(3-(5-methoxy-1H-indol-2-yl)-1H-indazol-5-yl)oxazolidin-2-one], the inhibition at 0.2 µM in assay [1] was 84%. Consider `O=C1OCCN1c1ccc2[nH]nc(-c3ccc(Cl)cc3)c2c1` [Example 24, 3-(3-(4-chlorophenyl)-1H-indazol-5-yl)oxazolidin-2-one], for which, in assay [1], the “Biochemical Data CaMKK2, inh @ 0.2 μM” value was determined as 41% inh @ 0.2 μM and the inhibition at 0.2 µM was determined as 41%. In addition, the “Biochemical Data CaMKK1, inh @ 0.2 μM” value in assay [2] is on record as under 5% inh @ 0.2 μM. As for `CCOC(=O)c1n[nH]c2ccc(N3CCOC3=O)cc12` [CL-629], the “Biochemical Data CaMKK2, inh @ 0.5 μM” value in assay [1] amounted to 20% inh @ 0.5 μM. The “Biochemical Data CaMKK1, inh @ 0.5 μM” value in assay [2] is recorded as under 5% inh @ 0.5 μM. Regarding `O=C1OCCN1c1ccc2[nH]nc(/C=C/c3cccnc3)c2c1` [Example 10, (E)-3-(3-(2-(pyridin-3-yl)vinyl)-1H-indazol-5-yl)oxazolidin-2-one], the inhibition at 0.5 µM in assay [1] is 72%. As to `O=C1OC[C@H](c2ccccc2)N1c1ccc2[nH]nc(-c3cc4ccccc4[nH]3)c2c1` [Example 37, (S)-3-(3-(1H-indol-2-yl)-1H-indazol-5-yl)-4-phenyloxazolidin-2-one], in assay [1], the inhibition at 0.2 µM is 74%. Still for that read-out and setting: to `CC(C)[C@H]1COC(=O)N1c1ccc2[nH]nc(-c3cc4ccccc4[nH]3)c2c1` [Example 39, (S)-3-(3-(1H-indol-2-yl)-1H-indazol-5-yl)-4-isopropyloxazolidin-2-one] belongs 72%. On to `O=C1OCCN1c1ccc2[nH]nc(C#Cc3ccccn3)c2c1` [Example 12, 3-(3-(pyridin-2-ylethynyl)-1H-indazol-5-yl)oxazolidin-2-one], for which, in assay [1], the “Biochemical Data CaMKK2, inh @ 0.5 μM” value is 52% inh @ 0.5 μM and the inhibition at 0.5 µM was 52%. In addition, the “Biochemical Data CaMKK1, inh @ 0.5 μM” value in assay [2] was 14% inh @ 0.5 μM. On to `O=C1OCCN1c1ccc2[nH]nc(-c3ccncc3)c2c1` [Example 13, 3-(3-(pyridin-4-yl)-1H-indazol-5-yl)oxazolidin-2-one], for which, in assay [1], the “Biochemical Data CaMKK2, inh @ 0.5 μM” value is 33% inh @ 0.5 μM and the inhibition at 0.5 µM was determined as 33%. In addition, in assay [2], the “Biochemical Data CaMKK1, inh @ 0.5 μM” value amounted to 7% inh @ 0.5 μM.

With `O=C1OCCN1c1ccc2[nH]nc(/C=C/c3ccccc3)c2c1` [Example 9, (E)-3-(3-styryl-1H-indazol-5-yl)oxazolidin-2-one], the inhibition at 0.5 µM in assay [1] is 89%.

Regarding `O=C1OC[C@H](CO)N1c1ccc2[nH]nc(-c3cc4ccccc4[nH]3)c2c1` [Example 35, (S)-3-(3-(1H-indol-2-yl)-1H-indazol-5-yl)-4-(hydroxymethyl)oxazolidin-2-one], in assay [1], the inhibition at 0.2 µM worked out at 68%.

`O=C1OCCN1c1ccc2[nH]nc(-c3cc4ccc(Cl)cc4[nH]3)c2c1` [Example 15, 3-(3-(6-chloro-1H-indol-2-yl)-1H-indazol-5-yl)oxazolidin-2-one]: the inhibition at 0.2 µM in assay [1] was 85%. For `O=C1CCCN1c1ccc2[nH]nc(-c3cc4ccccc4[nH]3)c2c1` [Example 42, 1-(3-(1H-indol-2-yl)-1H-indazol-5-yl)pyrrolidin-2-one], the inhibition at 0.2 µM in assay [1] was 56%. Still for that read-out and setting: then `O=C1OC[C@@H](c2ccccc2)N1c1ccc2[nH]nc(-c3cc4ccccc4[nH]3)c2c1` [Example 38, (R)-3-(3-(1H-indol-2-yl)-1H-indazol-5-yl)-4-phenyloxazolidin-2-one], with 50%. Same read-out and setting: then `C[C@@H]1COC(=O)N1c1ccc2[nH]nc(-c3cc4ccccc4[nH]3)c2c1` [Example 34, (R)-3-(3-(1H-indol-2-yl)-1H-indazol-5-yl)-4-methyloxazolidin-2-one], with 73%; and `C[C@H]1COC(=O)N1c1ccc2[nH]nc(-c3cc4ccccc4[nH]3)c2c1` [Example 33, (S)-3-(3-(1H-indol-2-yl)-1H-indazol-5-yl)-4-methyloxazolidin-2-one], with 90%.

As for `O=C1OCCN1c1ccc2[nH]nc(-c3ccc4ccccc4c3)c2c1` [Example 25, 3-(3-(naphthalen-2-yl)-1H-indazol-5-yl)oxazolidin-2-one], the inhibition at 0.2 µM in assay [1] was determined as 67%. `O=C1OCCN1c1ccc2[nH]nc(-c3ccc4cc[nH]c4c3)c2c1` [Example 28, 3-(3-(1H-indol-6-yl)-1H-indazol-5-yl)oxazolidin-2-one]: the inhibition at 0.2 µM in assay [1] is 44%. Same read-out and setting: then `O=C1OC[C@@H](CO)N1c1ccc2[nH]nc(-c3cc4ccccc4[nH]3)c2c1` [Example 36, (R)-3-(3-(1H-indol-2-yl)-1H-indazol-5-yl)-4-(hydroxymethyl)oxazolidin-2-one], with 57%.

For `O=C1OCCN1c1ccc2[nH]nc(-c3cc4c(Cl)cccc4[nH]3)c2c1` [Example 17, 3-(3-(4-chloro-1H-indol-2-yl)-1H-indazol-5-yl)oxazolidin-2-one], in assay [1], the inhibition at 0.2 µM stood at 71%. Still for that read-out and setting: then `O=C1OCCN1c1ccc2[nH]nc(-c3ccc(-c4ccccc4)cc3)c2c1` [Example 27, 3-(3-([1,1′-biphenyl]-4-yl)-1H-indazol-5-yl)oxazolidin-2-one], with 59%; and `COC(=O)[C@@H]1CCC(=O)N1c1ccc2[nH]nc(-c3cc4ccccc4[nH]3)c2c1` [Example 43, methyl (S)-1-(3-(1H-indol-2-yl)-1H-indazol-5-yl)-5-oxopyrrolidine-2-carboxylate], with 38%. As for `O=C1OCCN1c1ccc2[nH]nc(-c3coc4ccccc34)c2c1` [Example 1, 3-(3-(Benzofuran-3-yl)-1H-indazol-5-yl)oxazolidin-2-one], the inhibition at 10 µM in assay [1] turned out to be 72%. `CN(C)CCNC(=O)c1cccc(/C=C/c2n[nH]c3ccc(N4CCOC4=O)cc23)c1` [Example 29, (E)-N-(2-(dimethylamino)ethyl)-3-(2-(5-(2-oxooxazolidin-3-yl)-1H-indazol-3-yl)vinyl)benzamide]: in assay [1], the inhibition at 0.2 µM came to 63%.

Turning to `O=S1(=O)CCCN1c1ccc2[nH]nc(-c3cc4ccccc4[nH]3)c2c1` [Example 32, 2-(3-(1H-indol-2-yl)-1H-indazol-5-yl)isothiazolidine 1,1-dioxide], the inhibition at 0.2 µM in assay [1] came to 84%. With `O=C1OCCN1c1ccc2[nH]nc(/C=C/c3ccncc3)c2c1` [Example 11, (E)-3-(3-(2-(pyridin-4-yl)vinyl)-1H-indazol-5-yl)oxazolidin-2-one], the inhibition at 0.5 µM in assay [1] amounted to 80%. For `O=C(O)[C@@H]1CCC(=O)N1c1ccc2[nH]nc(-c3cc4ccccc4[nH]3)c2c1` [Example 44, (S)-1-(3-(1H-indol-2-yl)-1H-indazol-5-yl)-5-oxopyrrolidine-2-carboxylic acid], in assay [1], the inhibition at 0.2 µM worked out at 78%. `COc1cccc2cc(-c3n[nH]c4ccc(N5CCOC5=O)cc34)[nH]c12` [Example 18, 3-(3-(7-methoxy-1H-indol-2-yl)-1H-indazol-5-yl)oxazolidin-2-one]: the inhibition at 0.2 µM in assay [1] was 61%.

The term IC50 denotes the concentration needed to halve the response being measured. A low value points to greater potency in that assay.
